Tested on: filaggrin
Assay: Filaggrin expression in normal human keratinocytes (NHEK), in-situ immunolabelling
Format: cell-based
Settings: 72 hours incubation; for Mean filaggrin (AU): fluorescence intensity relative to number of cells, control 12261; for Mean filaggrin (AU) / % relative to the control (filaggrin): truffle extracts 4.5·10^−3% by weight of active material, Neohesperidin DHC 0.3 mg/ml, CaCl2 1.5 mM; for increase of filaggrin protein expression relative to the control: same concentrations as in the table, change versus control; for % relative to the control (filaggrin): control = 100
Text: The in vitro effect of the combination of neohesperidin dihydrochalcone (neohesperidin DHC) and an extract of black (Périgord) truffle (Tuber melanosporum) and/or an extract of white (summer) truffle (Tuber aestivum) on keratinocyte differentiation is studied. The expression and the location of the marker of filaggrin differentiation are especially studied in keratinocytes in culture which thus makes it possible to evaluate the ability of these combinations to increase the differentiation of these cells. The culture medium is: Keratinocyte-SFM supplemented with: • 0.25 ng/ml Epidermal Growth Factor (EGF); • 25 μg/ml pituitary extract (PE); • 25 μg/ml Gentamicin; The test medium is Keratinocyte-SFM supplemented with 25 μg/ml Gentamicin. The keratinocytes were seeded into 96-well plates and cultured in culture medium for 168 hours with renewal of the culture medium after 24 and 96 hours of incubation. […] All the experimental conditions were carried out in n=3, except the control condition which was carried out in n=6. After incubation, the medium was eliminated and the cells were rinsed, fixed and permeabilized. The cells were then labelled with the primary antibody (see Table A) directed against the protein of interest (filaggrin). […] At the same time, the nuclei of the cells were stained with Hoechst 33258 (bisbenzimide). [table] The image acquisition was carried out with an INCellAnalyzer™ 1000 (GE Healthcare) high-resolution imaging system. For each well, 10 digitized images were captured for each immunolabelling (×20 objective).

SMILES	Mean filaggrin (AU)	increase of filaggrin protein expression relative to the control	% relative to the control (filaggrin)
[Ca+2].[Cl-].[Cl-] [CaCl2, calcium chloride]	74795 AU	+510%	610%
COc1ccc(CCC(=O)c2c(O)cc(O[C@@H]3O[C@H](CO)[C@@H](O)[C@H](O)[C@H]3O[C@@H]3O[C@@H](C)[C@H](O)[C@@H](O)[C@H]3O)cc2O)cc1O [Neohesperidin DHC, 1-(4-((2-O-[6-Deoxy-α-L-mannopyranosyl]-β-D-glucopyranosyl)oxy)-2,6-dihydroxyphenyl)-3-[3-hydroxy-4-methoxyphenyl]-1-propanone]	18840 AU	+54%	154%
